Measured values taken from ChEMBL document CHEMBL3603789, “N-Lipidated Peptide Dimers: Effective Antibacterial Agents against Gram-Negative Pathogens through Lipopolysaccharide Permeabilization” (J Med Chem, 2015).
In brackets after ≈: the same amount, converted by molar mass. Peptide text beside a SMILES is read from it. * marks the point of attachment. Myristoyl = CCCCCCCCCCCCCC(=O)*; Lauroyl = CCCCCCCCCCCC(=O)*; Decanoyl = CCCCCCCCCC(=O)*; Octanoyl = CCCCCCCC(=O)*; Hexanoyl = CCCCCC(=O)*; Butyryl = CCCC(=O)*

Assays:
[1] = Toxicity in New Zealand white rabbit erythrocytes assessed as hemolytic activity after 60 mins; format: cell-based, Oryctolagus cuniculus; conditions: erythrocyte, 1 h
[2] = tested on: Klebsiella pneumoniae; assay: Antibacterial activity against Klebsiella pneumoniae DM4299 after 24 hrs by broth microdilution method; format: functional; conditions: DM4299, 24 h
[3] = tested on: Pseudomonas aeruginosa; assay: Antibacterial activity against Pseudomonas aeruginosa DM23155 after 24 hrs by broth microdilution method; format: functional; conditions: DM23155, 24 h
[4] = tested on: Escherichia coli; assay: Antibacterial activity against Escherichia coli ATCC 25922 after 24 hrs by broth microdilution method; format: functional; conditions: ATCC 25922, 24 h
[5] = tested on: Lipopolysaccharide (LPS); assay: Displacement of dansylcadaverine from Escherichia coli 0111:B4 LPS at 15 to 30 uM after 5 mins by high-throughput fluorescence displacement assay
[6] = tested on: Lipopolysaccharide (LPS); assay: Induction of Escherichia coli 0111:B4 LPS neutralization using p-nitroaniline assessed as concentration required to neutralize 50% after 1 hr by limulus amebocyte lysate assay

| SMILES | HC10 [1] [µg/mL] | MIC [2] [µM] | MIC [3] [µM] | MIC [4] [µM] | Activity [5] [%] | EC50 [6] [µM] |
| --- | --- | --- | --- | --- | --- | --- |
| CCCCCC(=O)N[C@@H](CCCNC(=N)N)C(=O)NCC(=O)N[C@@H](CCCNC(=N)N)C(=O)N[C@@H](CCCCN)C(=O)N[C@H](C(=O)N[C@H](C(=O)N[C@@H](CCCNC(=N)N)C(=O)N[C@@H](CCCNC(=N)N)C(=O)N[C@@H](CCCCN)C(=O)N[C@@H](CCCCN)C(=O)O)C(C)C)C(C)C (Hexanoyl-RGRKVVRRKK-OH) | > 10000 | 80 (≈ 110 µg/mL) | 80 (≈ 110 µg/mL) | 10 (≈ 13.8 µg/mL) |  |  |
| CCCC(=O)N[C@@H](CCCNC(=N)N)C(=O)NCC(=O)N[C@@H](CCCNC(=N)N)C(=O)N[C@@H](CCCCN)C(=O)NCC(=O)NCC(=O)N[C@@H](CCCNC(=N)N)C(=O)N[C@@H](CCCNC(=N)N)C(=O)N[C@@H](CCCCN)C(=O)N[C@@H](CCCCN)C(=O)O (Butyryl-RGRKGGRRKK-OH) | > 10000 | 80 (≈ 101 µg/mL) | 80 (≈ 101 µg/mL) | 40 (≈ 50.7 µg/mL) |  |  |
| CCCCCC(=O)N[C@@H](CCCNC(=N)N)C(=O)NCC(=O)N[C@@H](CCCNC(=N)N)C(=O)N[C@@H](CCCCN)C(=O)NCC(=O)NCC(=O)N[C@@H](CCCNC(=N)N)C(=O)N[C@@H](CCCNC(=N)N)C(=O)N[C@@H](CCCCN)C(=O)N[C@@H](CCCCN)C(=O)O (Hexanoyl-RGRKGGRRKK-OH) | > 10000 | > 80 | > 80 | 20 (≈ 25.9 µg/mL) |  |  |
| CCCCCCCCCCCC(=O)N[C@@H](CCCNC(=N)N)C(=O)NCC(=O)N[C@@H](CCCNC(=N)N)C(=O)N[C@@H](CCCCN)C(=O)NCC(=O)NCC(=O)N[C@@H](CCCNC(=N)N)C(=O)N[C@@H](CCCNC(=N)N)C(=O)N[C@@H](CCCCN)C(=O)N[C@@H](CCCCN)C(=O)O (Lauroyl-RGRKGGRRKK-OH) | 8602 | 10 (≈ 13.8 µg/mL) | 6 (≈ 8.28 µg/mL) | 6 (≈ 8.28 µg/mL) |  |  |
| CCCCCCCCCC(=O)N[C@@H](CCCNC(=N)N)C(=O)NCC(=O)N[C@@H](CCCNC(=N)N)C(=O)N[C@@H](CCCCN)C(=O)N[C@H](C(=O)N[C@H](C(=O)N[C@@H](CCCNC(=N)N)C(=O)N[C@@H](CCCNC(=N)N)C(=O)N[C@@H](CCCCN)C(=O)N[C@@H](CCCCN)C(=O)O)C(C)C)C(C)C (Decanoyl-RGRKVVRRKK-OH) | > 10000 | 80 (≈ 115 µg/mL) | 20 (≈ 28.7 µg/mL) | 6 (≈ 8.62 µg/mL) | 78 | 566 |
| N=C(N)NCCC[C@H](NC(=O)CNC(=O)[C@@H](N)CCCNC(=N)N)C(=O)N[C@@H](CCCCN)C(=O)NCC(=O)NCC(=O)N[C@@H](CCCNC(=N)N)C(=O)N[C@@H](CCCNC(=N)N)C(=O)N[C@@H](CCCCN)C(=O)N[C@@H](CCCCN)C(=O)O (H-RGRKGGRRKK-OH) | > 10000 | > 80 | > 80 | 20 (≈ 24 µg/mL) |  |  |
| CCCCCCCCCCCCCC(=O)N[C@@H](CCCNC(=N)N)C(=O)NCC(=O)N[C@@H](CCCNC(=N)N)C(=O)N[C@@H](CCCCN)C(=O)NCC(=O)NCC(=O)N[C@@H](CCCNC(=N)N)C(=O)N[C@@H](CCCNC(=N)N)C(=O)N[C@@H](CCCCN)C(=O)N[C@@H](CCCCN)C(=O)O (Myristoyl-RGRKGGRRKK-OH) | 6670 | 10 (≈ 14.1 µg/mL) | 6 (≈ 8.45 µg/mL) | 6 (≈ 8.45 µg/mL) |  |  |
| CCCC(=O)N[C@@H](CCCNC(=N)N)C(=O)NCC(=O)N[C@@H](CCCNC(=N)N)C(=O)N[C@@H](CCCCN)C(=O)N[C@H](C(=O)N[C@H](C(=O)N[C@@H](CCCNC(=N)N)C(=O)N[C@@H](CCCNC(=N)N)C(=O)N[C@@H](CCCCN)C(=O)N[C@@H](CCCCN)C(=O)O)C(C)C)C(C)C (Butyryl-RGRKVVRRKK-OH) | > 10000 | > 80 | > 80 | 40 (≈ 54.1 µg/mL) |  |  |
| CC(=O)N[C@@H](CCCNC(=N)N)C(=O)NCC(=O)N[C@@H](CCCNC(=N)N)C(=O)N[C@@H](CCCCN)C(=O)NCC(=O)NCC(=O)N[C@@H](CCCNC(=N)N)C(=O)N[C@@H](CCCNC(=N)N)C(=O)N[C@@H](CCCCN)C(=O)N[C@@H](CCCCN)C(=O)O (Ac-RGRKGGRRKK-OH) | > 10000 | > 80 | > 80 | 20 (≈ 24.8 µg/mL) |  |  |
| CCCCCCCC(=O)N[C@@H](CCCNC(=N)N)C(=O)NCC(=O)N[C@@H](CCCNC(=N)N)C(=O)N[C@@H](CCCCN)C(=O)N[C@H](C(=O)N[C@H](C(=O)N[C@@H](CCCNC(=N)N)C(=O)N[C@@H](CCCNC(=N)N)C(=O)N[C@@H](CCCCN)C(=O)N[C@@H](CCCCN)C(=O)O)C(C)C)C(C)C (Octanoyl-RGRKVVRRKK-OH) | > 10000 | > 80 | 10 (≈ 14.1 µg/mL) | 6 (≈ 8.45 µg/mL) | 69.9 | > 1000 |
| CCCCCCCCCC(=O)N[C@@H](CCCNC(=N)N)C(=O)NCC(=O)N[C@@H](CCCNC(=N)N)C(=O)N[C@@H](CCCCN)C(=O)NCC(=O)NCC(=O)N[C@@H](CCCNC(=N)N)C(=O)N[C@@H](CCCNC(=N)N)C(=O)N[C@@H](CCCCN)C(=O)N[C@@H](CCCCN)C(=O)O (Decanoyl-RGRKGGRRKK-OH) | > 10000 | 20 (≈ 27.1 µg/mL) | 10 (≈ 13.5 µg/mL) | 10 (≈ 13.5 µg/mL) |  |  |
| CCCCCCCCCCCC(=O)N[C@@H](CCCNC(=N)N)C(=O)NCC(=O)N[C@@H](CCCNC(=N)N)C(=O)N[C@@H](CCCCN)C(=O)N[C@H](C(=O)N[C@H](C(=O)N[C@@H](CCCNC(=N)N)C(=O)N[C@@H](CCCNC(=N)N)C(=O)N[C@@H](CCCCN)C(=O)N[C@@H](CCCCN)C(=O)O)C(C)C)C(C)C (Lauroyl-RGRKVVRRKK-OH) | > 10000 | 20 (≈ 29.3 µg/mL) | 10 (≈ 14.6 µg/mL) | 6 (≈ 8.79 µg/mL) |  |  |
| CC(C)[C@H](NC(=O)[C@H](CCCCN)NC(=O)[C@H](CCCNC(=N)N)NC(=O)CNC(=O)[C@@H](N)CCCNC(=N)N)C(=O)N[C@H](C(=O)N[C@@H](CCCNC(=N)N)C(=O)N[C@@H](CCCNC(=N)N)C(=O)N[C@@H](CCCCN)C(=O)N[C@@H](CCCCN)C(=O)O)C(C)C (H-RGRKVVRRKK-OH) | > 10000 | > 80 | 80 (≈ 103 µg/mL) | 10 (≈ 12.8 µg/mL) |  |  |
| CCCCCCCCCCCCCC(=O)N[C@@H](CCCNC(=N)N)C(=O)NCC(=O)N[C@@H](CCCNC(=N)N)C(=O)N[C@@H](CCCCN)C(=O)N[C@H](C(=O)N[C@H](C(=O)N[C@@H](CCCNC(=N)N)C(=O)N[C@@H](CCCNC(=N)N)C(=O)N[C@@H](CCCCN)C(=O)N[C@@H](CCCCN)C(=O)O)C(C)C)C(C)C (Myristoyl-RGRKVVRRKK-OH) | 8897 | 6 (≈ 8.96 µg/mL) | 10 (≈ 14.9 µg/mL) | 6 (≈ 8.96 µg/mL) |  |  |
| CC(=O)N[C@@H](CCCNC(=N)N)C(=O)NCC(=O)N[C@@H](CCCNC(=N)N)C(=O)N[C@@H](CCCCN)C(=O)N[C@H](C(=O)N[C@H](C(=O)N[C@@H](CCCNC(=N)N)C(=O)N[C@@H](CCCNC(=N)N)C(=O)N[C@@H](CCCCN)C(=O)N[C@@H](CCCCN)C(=O)O)C(C)C)C(C)C (Ac-RGRKVVRRKK-OH) | > 10000 | > 80 | > 80 | 40 (≈ 53 µg/mL) |  |  |
